Assay [1] deals with T1, Angiotensin-converting enzyme (Oryctolagus cuniculus, UniProt P12822).
T1 sequence (P12822 whole entry): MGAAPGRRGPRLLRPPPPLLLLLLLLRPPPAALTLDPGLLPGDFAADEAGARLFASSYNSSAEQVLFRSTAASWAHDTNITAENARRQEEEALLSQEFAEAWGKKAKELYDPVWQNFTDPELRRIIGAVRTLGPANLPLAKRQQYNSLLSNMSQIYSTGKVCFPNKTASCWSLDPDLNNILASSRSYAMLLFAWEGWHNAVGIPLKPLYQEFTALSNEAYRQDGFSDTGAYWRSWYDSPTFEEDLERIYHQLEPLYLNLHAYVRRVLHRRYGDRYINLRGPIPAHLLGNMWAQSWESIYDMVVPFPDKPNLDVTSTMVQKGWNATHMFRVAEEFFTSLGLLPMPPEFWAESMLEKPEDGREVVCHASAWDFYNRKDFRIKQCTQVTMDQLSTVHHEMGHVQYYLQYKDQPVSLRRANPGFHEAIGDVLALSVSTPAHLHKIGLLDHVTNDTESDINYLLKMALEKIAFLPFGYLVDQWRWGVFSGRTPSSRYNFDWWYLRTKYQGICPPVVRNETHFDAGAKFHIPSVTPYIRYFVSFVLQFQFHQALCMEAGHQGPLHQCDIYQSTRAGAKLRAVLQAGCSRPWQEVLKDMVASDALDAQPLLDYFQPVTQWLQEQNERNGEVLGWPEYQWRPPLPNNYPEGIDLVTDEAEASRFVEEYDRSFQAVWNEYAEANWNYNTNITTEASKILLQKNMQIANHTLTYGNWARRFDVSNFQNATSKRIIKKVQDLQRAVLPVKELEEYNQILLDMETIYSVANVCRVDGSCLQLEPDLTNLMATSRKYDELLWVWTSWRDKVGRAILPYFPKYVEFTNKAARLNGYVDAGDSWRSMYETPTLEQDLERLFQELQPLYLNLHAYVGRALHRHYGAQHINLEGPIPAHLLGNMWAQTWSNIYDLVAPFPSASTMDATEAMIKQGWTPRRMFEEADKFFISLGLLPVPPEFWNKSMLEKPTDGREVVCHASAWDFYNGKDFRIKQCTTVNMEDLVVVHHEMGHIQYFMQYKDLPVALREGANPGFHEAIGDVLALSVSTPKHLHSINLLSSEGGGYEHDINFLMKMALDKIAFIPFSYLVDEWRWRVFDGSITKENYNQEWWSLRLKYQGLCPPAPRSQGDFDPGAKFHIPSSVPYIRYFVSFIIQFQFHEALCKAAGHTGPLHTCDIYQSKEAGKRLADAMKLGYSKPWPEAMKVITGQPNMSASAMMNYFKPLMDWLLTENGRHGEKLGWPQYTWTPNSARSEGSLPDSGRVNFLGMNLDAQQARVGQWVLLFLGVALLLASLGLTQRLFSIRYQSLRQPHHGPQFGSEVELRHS
In words: biochemical. It counts as tissue-based, Lung.

Assay [2] in a line: DRUGMATRIX: Calcium Channel Type L, Benzothiazepine radioligand binding (ligand: [3H] Diltiazem). It counts as cell membranes, Rattus norvegicus, Wistar, Brain, Membrane. The following applies: Not Active = under 50% inhibition at 10 µM.
Assay [3] is described as follows: DRUGMATRIX: beta-Lactamase enzyme inhibition (substrate: Nitrocefin). On the set-up: species or system Bacillus cereus. The following applies: Not Active = under 50% inhibition at 10 µM.
In assay [4] the target is T2, Thromboxane-A synthase (Homo sapiens, UniProt P24557).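 Note: enzyme inhibition assay with PGH2 supplied as substrate; in other assays of this panel Not Active means under 50% inhibition at 10 µM.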
T2 sequence (P24557 whole entry): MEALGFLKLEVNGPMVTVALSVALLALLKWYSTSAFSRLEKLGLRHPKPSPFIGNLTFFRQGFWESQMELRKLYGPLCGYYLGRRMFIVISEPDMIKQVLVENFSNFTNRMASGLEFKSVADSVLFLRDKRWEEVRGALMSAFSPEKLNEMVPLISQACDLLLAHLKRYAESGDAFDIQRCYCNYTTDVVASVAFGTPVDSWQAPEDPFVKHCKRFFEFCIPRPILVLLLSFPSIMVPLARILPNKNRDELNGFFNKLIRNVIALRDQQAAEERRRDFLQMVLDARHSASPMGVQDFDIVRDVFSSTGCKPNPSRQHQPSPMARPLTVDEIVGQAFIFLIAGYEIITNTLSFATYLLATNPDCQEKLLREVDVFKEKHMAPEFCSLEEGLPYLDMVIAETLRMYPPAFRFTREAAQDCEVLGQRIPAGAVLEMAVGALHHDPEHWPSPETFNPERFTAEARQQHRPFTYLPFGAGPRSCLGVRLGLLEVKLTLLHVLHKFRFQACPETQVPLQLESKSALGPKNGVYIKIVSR
In words: biochemical. It counts as tissue-based, Platelet.

Assay [5] can be described thus: DRUGMATRIX: Glutamate, Kainate radioligand binding (ligand: [3H] Kainic acid). The format is cell membranes, Rattus norvegicus, Wistar, Brain, Membrane. The note with it: Not Active = under 50% inhibition at 10 µM.
A short description of assay [6]: DRUGMATRIX: Phorbol Ester radioligand binding (ligand: [3H] PDBu). It counts as cell membranes, Mus musculus, ICR, Brain, Membrane. The following applies: Not Active = under 50% inhibition at 10 µM.
The nature of assay [7]: DRUGMATRIX: GABAA, Flunitrazepam, Central radioligand binding (ligand: [3H] Flunitrazepam). It counts as cell membranes, Rattus norvegicus, Wistar, Brain, Membrane. The note with it: Not Active = under 50% inhibition at 10 µM.
The nature of assay [8]: DRUGMATRIX: Atrial Natriuretic Factor (ANF) radioligand binding (ligand: [125I] ANF (rat)). It counts as cell membranes, Cavia porcellus, Dunkin-Hartley, Adrenal gland, Membrane. The following applies: Not Active = under 50% inhibition at 10 µM.
Assay [9] addresses C-C chemokine receptor type 2 (Homo sapiens, UniProt P41597). It counts as cell membranes, CHO-K1, Membrane. The following applies: cho-k1.
In assay [10] the target is T3, Progesterone receptor (Bos taurus, UniProt Q690N0).
T3 sequence (Q690N0 whole entry): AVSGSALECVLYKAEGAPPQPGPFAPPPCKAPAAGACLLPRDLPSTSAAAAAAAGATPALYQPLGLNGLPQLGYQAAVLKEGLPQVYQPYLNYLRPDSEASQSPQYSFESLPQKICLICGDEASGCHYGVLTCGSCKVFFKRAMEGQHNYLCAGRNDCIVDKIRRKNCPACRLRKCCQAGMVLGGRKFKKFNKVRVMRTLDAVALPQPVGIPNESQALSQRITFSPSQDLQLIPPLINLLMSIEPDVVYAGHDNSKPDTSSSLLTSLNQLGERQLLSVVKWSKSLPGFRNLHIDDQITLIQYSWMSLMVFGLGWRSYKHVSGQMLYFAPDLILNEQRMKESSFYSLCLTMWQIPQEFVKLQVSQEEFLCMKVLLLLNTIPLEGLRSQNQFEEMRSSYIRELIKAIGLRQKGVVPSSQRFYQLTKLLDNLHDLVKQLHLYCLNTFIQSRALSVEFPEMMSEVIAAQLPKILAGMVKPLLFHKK
As to the kind of experiment: DRUGMATRIX: Progesterone radioligand binding (ligand: [3H] R-5020). The format is tissue-based, Uterus. The following applies: Not Active = under 50% inhibition at 10 µM.

Chain of C-C chemokine receptor type 2 (P41597 whole entry): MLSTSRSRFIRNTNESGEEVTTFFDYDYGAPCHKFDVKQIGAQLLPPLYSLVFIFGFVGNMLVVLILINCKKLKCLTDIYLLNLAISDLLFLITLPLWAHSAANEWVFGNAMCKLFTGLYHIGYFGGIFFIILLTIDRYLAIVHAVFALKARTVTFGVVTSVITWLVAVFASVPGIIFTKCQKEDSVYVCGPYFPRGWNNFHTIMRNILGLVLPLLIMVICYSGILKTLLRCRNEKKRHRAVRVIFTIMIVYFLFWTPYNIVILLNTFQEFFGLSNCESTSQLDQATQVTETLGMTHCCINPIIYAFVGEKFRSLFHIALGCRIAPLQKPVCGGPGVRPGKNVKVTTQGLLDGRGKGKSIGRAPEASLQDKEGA

Usually IC50 stands for the concentration at which inhibition is half-maximal. As a reminder, the Ki is a measure of affinity in units of concentration, obtained from inhibition or displacement. For the molecule `CC(C)(C)NC(=O)[C@@H]1CN(Cc2cccnc2)CCN1C[C@@H](O)C[C@@H](Cc1ccccc1)C(=O)N[C@H]1c2ccccc2C[C@H]1O.O`, the half-maximal inhibitory concentration (IC50) entry in assay [1] was “Not Active”; in assay [2], “Not Active”; in assay [3], “Not Active”; in assay [4] (read-out: IC50) it was 1.85 µM; in assay [5], “Not Active”; in assay [6], “Not Active”. In addition, the IC50 entry in assay [7], in assay [8], in [9] and in assay [10] was “Not Active” in each case. Further, the inhibitory constant (Ki) result in assay [2], in assay [3], in [5], in assay [6], in [7] and in assay [8] was “Not Active” each time.

On to `COc1ccc(CCN2CCC(Nc3nc4ccccc4n3Cc3ccc(F)cc3)CC2)cc1` [ASTEMIZOLE], for which the half-inhibitory concentration (IC50) result in assay [1], in assay [4] (platelet), in [9] and in assay [10] was “Not Active” throughout.

Take `CN(C)CCCN1c2ccccc2CCc2ccc(Cl)cc21` [CLOMIPRAMINE]: the IC50 result in [1], in assay [4] (platelet), in [9] and in [10] was “Not Active” each time.

With `Clc1ccccc1C(c1ccccc1)(c1ccccc1)n1ccnc1` [CLOTRIMAZOLE], the IC50 entry in assay [1] was “Not Active”; in assay [4] (read-out: IC50), 0.014 µM; in assay [9], “Not Active”; in assay [10] (read-out: IC50), 8.77 µM. Besides, in assay [10] (read-out: Ki), the Ki came to 1.14 µM.

On to `O=C(CCCN1CCC(O)(c2ccc(Cl)cc2)CC1)c1ccc(F)cc1` [HALOPERIDOL], for which the half-inhibitory concentration (IC50) result in [1], in assay [4] (platelet) and in assay [9] was “Not Active” in each case.

For the molecule `CCC[C@@H]1C[C@@H](C(=O)N[C@@H]([C@H]2O[C@H](SC)[C@H](O)[C@@H](O)[C@H]2O)[C@@H](C)O)N(C)C1` [LINCOMYCIN], the IC50 result in assay [1], in assay [2], in assay [3], in [4] (platelet), in assay [5] and in assay [6] was “Not Active” in each case. The concentration for half-maximal inhibition (IC50) entry in assay [7], in assay [8] and in assay [9] was “Not Active” in each case. For the same molecule, the Ki result in assay [2], in assay [3], in assay [5], in assay [6], in assay [7] and in [8] was “Not Active” each time.

On to `COS(C)(=O)=O` [METHANESULFONIC ACID METHYL ESTER], for which the half-inhibitory concentration (IC50) result in [1], in assay [2], in assay [3], in [4] (platelet), in [5] and in assay [6] was “Not Active” each time. Also, the IC50 result in [7], in [8] and in assay [9] was “Not Active” throughout. Besides, the Ki result in assay [2], in assay [3], in [5], in assay [6], in [7] and in assay [8] was “Not Active” each time.

In the case of `CN1CCN2c3ccccc3Cc3ccccc3C2C1` (stereo not drawn) [MIANSERIN], the concentration for half-maximal inhibition (IC50) entry in assay [1], in assay [4] (platelet), in [9] and in [10] was “Not Active” in each case.

As to `CC(C)(O)c1ccccc1CC[C@@H](SCC1(CC(=O)O)CC1)c1cccc(/C=C/c2ccc3ccc(Cl)cc3n2)c1` [MONTELUKAST], the IC50 result in [1] was “Not Active”; in assay [4] (read-out: IC50), 1.53 µM; in assay [9], “Not Active”; in assay [10], “Not Active”.

For `CSc1ccc2c(c1)N(CCC1CCCCN1C)c1ccccc1S2` (stereo not drawn) [THIORIDAZINE], the IC50 result in assay [1], in assay [4] (platelet), in [9] and in assay [10] was “Not Active” each time.

`COc1cccc(C2(O)CCCCC2CN(C)C)c1` (stereo not drawn) [TRAMADOL]: the IC50 entry in assay [1], in assay [4] (platelet), in [9] and in assay [10] was “Not Active” in each case.

As to `CN1[C@@H]2CC[C@H]1C[C@@H](OC(=O)c1c[nH]c3ccccc13)C2` [TROPISETRON], the IC50 result in [1], in assay [2], in assay [3], in assay [4] (platelet), in assay [5] and in assay [6] was “Not Active” each time. Further, the figures for the concentration for half-maximal inhibition (IC50) in assay [7] (read-out: IC50), in assay [8] and in [9] were 1.14 µM, “Not Active” and “Not Active”, respectively. In addition, the inhibitory constant (Ki) result was “Not Active” in [2]; “Not Active” in assay [3]; “Not Active” in assay [5]; “Not Active” in assay [6]; 0.926 µM in [7] (read-out: Ki); “Not Active” in assay [8].

Source of the values: ChEMBL document CHEMBL1909046, “DrugMatrix in vitro pharmacology data”.
